Where a name gives a salt, the structure may show the parent alone.
How the values were obtained:
DBH = molecular target: T1, DBH (Homo sapiens, UniProt P09172); settings: cited from earlier work; for DBH inhibition (in words): literature reports; for mode of DBH inhibition: phenethylalamine analogues
T1 sequence (P09172 1-617): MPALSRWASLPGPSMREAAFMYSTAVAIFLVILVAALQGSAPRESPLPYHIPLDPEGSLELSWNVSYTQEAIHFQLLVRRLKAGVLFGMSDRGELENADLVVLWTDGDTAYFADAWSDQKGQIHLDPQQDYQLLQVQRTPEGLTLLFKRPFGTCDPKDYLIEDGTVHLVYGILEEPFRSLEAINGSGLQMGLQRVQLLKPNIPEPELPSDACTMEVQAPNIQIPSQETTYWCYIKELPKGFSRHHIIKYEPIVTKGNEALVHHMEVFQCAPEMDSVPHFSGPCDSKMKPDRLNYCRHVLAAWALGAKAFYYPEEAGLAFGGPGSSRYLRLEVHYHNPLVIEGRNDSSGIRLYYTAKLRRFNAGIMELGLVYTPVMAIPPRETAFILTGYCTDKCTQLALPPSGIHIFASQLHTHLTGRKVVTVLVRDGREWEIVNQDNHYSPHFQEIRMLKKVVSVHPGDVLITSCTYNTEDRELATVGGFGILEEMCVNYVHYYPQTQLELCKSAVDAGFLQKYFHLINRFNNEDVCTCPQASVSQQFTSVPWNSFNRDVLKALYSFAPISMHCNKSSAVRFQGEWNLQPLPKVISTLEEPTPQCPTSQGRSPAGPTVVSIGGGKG

[1] = tested on: spontaneously hypertensive rats; assay: mean arterial blood pressure in spontaneously hypertensive rats; type: in vivo, rat; settings: 50 mg/kg intraperitoneally
Experimental: Further, spontaneously hypertensive rats were treated with a suspension or solution of N-(2-aminoethyl)-1-(3,5-difluorobenzyl)-2-mercaptoimidazole-5-carboxamid formate at a dose of 50 mg/kg intraperitoneally, and mean arterial blood pressure was monitored for 260 minutes using indwelling cannulae in the tail arteries.

O=C(O)c1ccc(CCC(Br)CBr)cn1 (stereo not drawn) [5-(3,4-dibromobutyl)picolinic acid]
DBH inhibition (in words) (DBH): DBH inhibitors

O=C(O)c1ccc(CCCCCl)cn1 [5-(4-chlorobutyl) picolinic acid]
DBH inhibition (in words) (DBH): inhibit DBH

CN(C)C(=S)SCc1ccc(C(=O)O)nc1 [5-(dimethyldithiocarbamoylmethyl)picolinic acid]
DBH inhibition (in words) (DBH): DBH inhibitors

NOCc1ccccc1 [Benzyloxyamine, benzyloxyamine]
mode of DBH inhibition (DBH): apparently act as competitive inhibitors

CCCCc1ccc(C(N)=O)nc1 [Bupicomide, 5-(n-butyl)picolinamine]
DBH inhibition (in words) (DBH): DBH inhibitor

NCCNC(=O)c1cnc(S)n1Cc1cc(F)cc(F)c1 [N-(2-Aminoethyl)-1-(3,5-difluorobenzyl)-2-mercaptoimidazole-5-carboxamide,formate]
blood pressure when monitoring was terminated ([1]; 260 minutes): blood pressure remained decreased when monitoring was terminated
mean arterial blood pressure reduction compared to vehicle-treated controls ([1]; tail artery cannulae, monitored for 260 minutes): significant blood pressure reductions
time following treatment to significant blood pressure reductions ([1]; vs vehicle-treated controls): ≤ 30 min

NNCc1ccccc1 [benzylhydrazine]
mode of DBH inhibition (DBH): apparently act as competitive inhibitors

From patent US4837353A, “Dopamine-β-hydroxylase inhibitors” (SmithKline Beckman Corporation, priority 1988, dated 1989)
